For this assay, the system named is HFD-fed obese mice. Put plainly: PBA alone in HFD-fed or ND-fed mice: bodyweight, hypothalamic PERK and leptin-stimulated Stat3 phosphorylation. It counts as in vivo. On the procedure: C57BL/6 mice that were kept on high fat diet feeding for 25 weeks were either treated with vehicle or PBA (1 g/kg/day) for 10 days. Following the pretreatment period mice were given daily leptin (5 mg/kg/day, IP) treatment. (a) Bodyweight (g), (b) % decrease in the bodyweight, and (c) 24 hour food intake (g) during the 30 days of leptin administration. Metabolic cage analysis was performed after 25 days of treatment (d) O2 consumption (ml/kg/hr), (e) CO2 production (ml/kg/hr), (f) X-axis ambulatory activity, (g) Respiratory exchange ratio (VCO2/VO2), (h) Heat generation (kcal/hr). Dexa scan analysis of (i) Lean body mass (g), (j) Fat % and (k) Total fat amount (g). C57BL6 mice were fed a HFD for a period of 25 weeks and then either treated with PBA (1 g/kg) or VEH for 16 days. (1) PERK phosphorylation in the hypothalamus extracts. (m) Leptin-stimulated Stat3^Tyr705 phosphorylation in the VEH and PBA-treated HFD-fed mice. (n) C57BL6 mice were fed a ND for a period of 25 weeks and then either treated with PBA (1 g/kg) or VEH for 16 days. Following the treatment period mice were starved for six hours and subsequently injected with leptin (IP, 1 mg/kg). Stat3^Tyr705 phoshorylation and total Stat levels were examined in the hypothalamus extracts. (n=6 in each group). Error bars are ±S.E.M., P values are determined by Student's t-test. (*p<0.05, **p<0.01, ***p<0.001)
Mice were fed a HFD (60%) for 25 weeks and following an acclimation PBA (1 gr/kg/day) and vehicle treatment was initiated. (a) Bodyweight, (b) % decrease in bodyweight and (c) daily food intake of VEH and PBA-treated HFD-fed obese mice were analyzed during the 16 days of treatment period. (n=5 in each group) Error bars are ±S.E.M., P values are determined by Student's t-test (*p<0.05, **p<0.01, ***p<0.001).
To investigate whether PBA treatment reduces the ER stress, we analyzed the PERK phosphorylation in the HFD-fed mice, which were either treated with VEH or PBA for 16 days. […] To investigate whether leptin-stimulated activation of LepRB signaling is increased in the hypothalamus of the PBA-treated HFD-fed obese mice, we intraperitoneally injected leptin (0.75 mg/kg) following a six-hour fast and analyzed the Stat3^Tyr705 phosphorylation in the hypothalamus extracts of VEH and PBA-treated mice. […] We also analyzed the leptin-stimulated Stat3^Tyr705 phosphorylation in the hypothalamus of the wt mice, which were either treated with vehicle or PBA for 16 days.

Where [1] appears, read: HFD-fed mice, PBA 1 g/kg alone, 16 days, vs VEH.

For the compound `O=C(O)CCCc1ccccc1` [PBA, 4-phenyl butyric acid], under setting [1], the body weight result is recorded as “did not reduce” and the food intake entry is on record as “did not reduce”. Further, the “PERK phosphorylation in the hypothalamus” value (HFD-fed obese mice, PBA 1 g/kg, 16 days, vs VEH) is listed as “marked decrease”. Besides, the “leptin-stimulated Stat3 Tyr705 phosphorylation in hypothalamus” value (HFD-fed obese mice, PBA 16 days, leptin 0.75 mg/kg IP after six-hour fast) is listed as “marked up-regulation”. The “leptin-stimulated Stat3 Tyr705 phosphorylation in hypothalamus” value (ND-fed lean wt mice, PBA 16 days vs VEH, leptin IP 1 mg/kg) is on record as “did not cause a higher activation”.
